Like-named read-outs stand apart in the source and are kept apart here.

One assay concerns KM12-luc cells. In words: Cell proliferation and growth inhibition assay (CCK-8) in KM12-luc. It is filed as cell-based. To be noted: KM12-luc cells, treated with test compounds for 72 hrs, CCK-8 viability, read-out: NTRK IC50 in KM12-luc. In short, it runs like this:
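Cells were grown at 37 °C, 5% CO2 with 10% FBS: MV-4-11 in IMDM, H1975 in RPMI 1640, KM12-luc in DMEM. Viability was read by CCK-8 (1-4 hrs reagent incubation, absorbance at OD450). IC50 came from a non-linear sigmoidal dose-response fit.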

A further assay relates to H1975 cells. Kind of assay: Cell proliferation and growth inhibition assay (CCK-8) in H1975. In kind it is cell-based. The conditions noted are these: treated with test compounds for 72 hrs, CCK-8 viability, read-out: EGFR IC50 in H1975. The method, then:
MV-4-11 and H1975 cells were obtained from the American Type Culture Collection and KM12-luc cells were obtained from JCRB Cell Bank. All cell lines were maintained at 37° C. with 5% C02, in media supplemented with 10% fetal bovine serum and penicillin (100 units/mL) and streptomycin (100 μg/mL). MV-4-11 cells were maintained in Iscove's Modified Dubecco's Medium, H1975 cells were cultured with RPMI 1640 media, and KM12-luc cells were maintained in Dulbecco's Modification of Eagle's Medium. CCK-8 reagent was obtained from Yeasen.
Cell proliferation was assessed by CCK-8 assay (Yeasen) per the manufacturer's instructions. The MV-4-11 (AML), H1975, and KM12-luc cells were seeded at 30,000, 3,000 and 2,500 cells per well onto 96-well plates, and after a 24 h incubation, the cells were treated with test compounds for 72 hrs. Cell viability was assayed by incubating the cells with CCK-8 reagent for 1-4 hrs. Absorbance was measured at OD450 using the Beckman DTX880. The data was calculated using GraphPad Prism version 6.01. The IC50 values were fitted using a non-linear regression model with a sigmoidal dose response.

Regarding `COc1cnc(Nc2ccc(N3CC[C@H](N(C)C)C3)c(NC(C)=O)c2)nc1-c1c[nH]c2c(OC)cccc12` [Compound S-288, (S)—N-(2-(3-(dimethylamino)pyrrolidin-1-yl)-5-((5-methoxy-4-(7-methoxy-1H-indol-3-yl)pyrimidin-2-yl)amino)phenyl)acetamide], the IC50 in the assay on KM12-luc cells (KM12-Luc, 72 h) is 16.9 nM; with H1975 cells (Homo sapiens, NCI-H1975, 72 h), 1260 nM.
For `CC(=O)Nc1cc(Nc2ncc(Cl)c(-c3c[nH]c4c(F)cccc34)n2)ccc1N(C)CCN(C)C` [Compound 412, N-(5-((5-chloro-4-(7-fluoro-1H-indol-3-yl)pyrimidin-2-yl)amino)-2-((2-(dimethylamino)ethyl)(methyl)amino)phenyl)acetamide] the same measures were 8.4 nM and 380 nM.
In the case of `CC(=O)Nc1cc(Nc2ncc(C(F)(F)F)c(-c3c[nH]c4cccc(F)c34)n2)ccc1N(C)CCN(C)C` [Compound 316, N-(2-((2-(dimethylamino)ethyl)(methyl)amino)-5-((4-(4-fluoro-1H-indol-3-yl)-5-(trifluoromethyl)pyrimidin-2-yl)amino)phenyl)acetamide], the IC50 in the assay with KM12-luc cells (KM12-Luc, 72 h) came to 21.6 nM; in the assay on H1975 cells (Homo sapiens, NCI-H1975, 72 h), 477 nM.
On the same counts, the results for `CC(=O)Nc1cc(Nc2ncc(C(F)(F)F)c(-c3c[nH]c4ccccc34)n2)ccc1NCCN(C)C` [Compound 303a, N-(5-((4-(1H-indol-3-yl)-5-(trifluoromethyl)pyrimidin-2-yl)amino)-2-((2-(dimethylamino)ethyl)amino)phenyl)acetamide] are 19.1 nM and 109 nM.
Regarding `CC(=O)Nc1cc(Nc2nc(-c3c[nH]c4ccccc34)c3cc[nH]c3n2)cc(F)c1N(C)CCN(C)C` [Compound 248b, N-(5-((4-(1H-indol-3-yl)-7H-pyrrolo[2,3-d]pyrimidin-2-yl)amino)-2-((2-(dimethylamino)ethyl)(methyl)amino)-3-fluorophenyl)acetamide], the half-maximal inhibitory concentration (IC50) in the assay with KM12-luc cells is 17.1 nM; with H1975 cells, 1050 nM.
Take `CC(=O)Nc1cc(Nc2nc(-c3c[nH]c4ccccc34)c3cc[nH]c3n2)cc(F)c1N(C)CCN(C)C` [Compound 248a, N-(5-((4-(1H-indol-3-yl)-7H-pyrrolo[2,3-d]pyrimidin-2-yl)amino)-2-((2-(dimethylamino)ethyl)(methyl)amino)-3-fluorophenyl)acetamide]: the IC50 in the assay on KM12-luc cells (KM12-Luc, 72 h) worked out at 12.8 nM; in the assay with H1975 cells, 442 nM.
Consider `CC(=O)Nc1cc(Nc2ncc(C(F)(F)F)c(-c3cn(C)c4ccccc34)n2)ccc1N(C)CCN(C)C` [Compound 296, N-(2-((2-(dimethylamino)ethyl)(methyl)amino)-5-((4-(1-methyl-1H-indol-3-yl)-5-(trifluoromethyl)pyrimidin-2-yl)amino)phenyl)acetamide], for which the IC50 with KM12-luc cells turned out to be 10.7 nM; in the assay with H1975 cells (Homo sapiens, NCI-H1975, 72 h), 1070 nM.
`COc1cccc2c(-c3nc(Nc4ccc(N(C)CCN(C)C)c(NC(C)=O)c4)ncc3Cl)c[nH]c12` [Compound 433, N-(5-(5-chloro-4-(7-methoxy-1H-indol-3-yl)pyrimidin-2-ylamino)-2-((2-(dimethylamino)ethyl)(methyl)amino)phenyl)acetamide]: the IC50 amounted to 13.9 nM in the assay with KM12-luc cells (KM12-Luc, 72 h) and 506 nM in the assay with H1975 cells (Homo sapiens, NCI-H1975, 72 h).
Take `CCC(=O)Nc1cc(Nc2ncc(F)c(-c3c[nH]c4c(OC)cccc34)n2)ccc1N(C)CCN(C)C` [Compound 530, N-(2-((2-(dimethylamino)ethyl)(methyl)amino)-5-((5-fluoro-4-(7-methoxy-1H-indol-3-yl)pyrimidin-2-yl)amino)phenyl)propionamide]: the IC50 in the assay with H1975 cells (Homo sapiens, NCI-H1975, 72 h) turned out to be 769 nM.
For `CC(=O)Nc1cc(Nc2nccc(-c3c[nH]c4c(F)cccc34)n2)ccc1N(C)CCN(C)C` [Compound 546, N-(2-((2-(dimethylamino)ethyl)(methyl)amino)-5-((4-(7-fluoro-1H-indol-3-yl)pyrimidin-2-yl)amino)phenyl)acetamide], the IC50 in the assay on H1975 cells (Homo sapiens, NCI-H1975, 72 h) is 1020 nM.
The same measure, in the same setting: as for `COc1cccc2c(-c3ccnc(Nc4ccc(N(C)CCN(C)C)c(NC(C)=O)c4)n3)c[nH]c12` [Compound 554, N-(2-((2-(dimethylamino)ethyl)(methyl)amino)-5-((4-(7-methoxy-1H-indol-3-yl)pyrimidin-2-yl)amino)phenyl)acetamide], the figure is 1030 nM; as for `CCC(=O)Nc1cc(Nc2ncc(OC)c(-c3c[nH]c4c(OC)cccc34)n2)ccc1N(C)CCN(C)C` [Compound 538, N-(2-((2-(dimethylamino)ethyl)(methyl)amino)-5-((5-methoxy-4-(7-methoxy-1H-indol-3-yl)pyrimidin-2-yl)amino)phenyl)propionamide], 3680 nM.
Regarding `COc1cnc(Nc2ccc(N(C)CCN(C)C)c(NC(C)=O)c2)nc1-c1c[nH]c2c(C)cccc12` [Compound 537, N-(2-((2-(dimethylamino)ethyl)(methyl)amino)-5-((5-methoxy-4-(7-methyl-1H-indol-3-yl)pyrimidin-2-yl)amino)phenyl)acetamide], the IC50 in the assay with H1975 cells is 1080 nM.
For `Cc1cccc2c(-c3ccnc(Nc4ccc(N(C)CCN(C)C)c(N)c4)n3)c[nH]c12` [Compound 549, N^1-(2-(dimethylamino)ethyl)-N^1-methyl-N^4-(4-(7-methyl-1H-indol-3-yl)pyrimidin-2-yl)benzene-1,2,4-triamine], in the assay on H1975 cells (Homo sapiens, NCI-H1975, 72 h), the IC50 worked out at 682 nM.
Same read-out and setting: as for `CCC(=O)Nc1cc(Nc2nccc(-c3c[nH]c4c(F)cccc34)n2)ccc1N(C)CCN(C)C` [Compound 547, N-(2-((2-(dimethylamino)ethyl)(methyl)amino)-5-((4-(7-fluoro-1H-indol-3-yl)pyrimidin-2-yl)amino)phenyl)propionamide], the figure is 1180 nM; as for `CCC(=O)Nc1cc(Nc2nccc(-c3c[nH]c4c(C)cccc34)n2)ccc1N(C)CCN(C)C` [Compound 550, N-(2-((2-(dimethylamino)ethyl)(methyl)amino)-5-((4-(7-methyl-1H-indol-3-yl)pyrimidin-2-yl)amino)phenyl)propionamide], 1510 nM.
Same read-out and setting: as for `CCC(=O)Nc1cc(Nc2ncc(C(F)(F)F)c(-c3c[nH]c4c(OC)cccc34)n2)ccc1N(C)CCN(C)C` [Compound 543, N-(2-((2-(dimethylamino)ethyl)(methyl)amino)-5-((4-(7-methoxy-1H-indol-3-yl)-5-(trifluoromethyl)pyrimidin-2-yl)amino)phenyl)propionamide], the figure is 67.4 nM.
Same read-out and setting: as for `CCC(=O)Nc1cc(Nc2ncc(F)c(-c3c[nH]c4c(C)cccc34)n2)ccc1N(C)CCN(C)C` [Compound 526, N-(2-((2-(dimethylamino)ethyl)(methyl)amino)-5-((5-fluoro-4-(7-methyl-1H-indol-3-yl)pyrimidin-2-yl)amino)phenyl)propionamide], the figure is 656 nM; as for `CCC(=O)Nc1cc(Nc2ncc(F)c(-c3c[nH]c4c(F)cccc34)n2)ccc1N(C)CCN(C)C` [Compound 522, N-(2-((2-(dimethylamino)ethyl)(methyl)amino)-5-((5-fluoro-4-(7-fluoro-1H-indol-3-yl)pyrimidin-2-yl)amino)phenyl)propionamide], 999 nM.
As to `CCC(=O)Nc1cc(Nc2ncc(C(F)(F)F)c(-c3c[nH]c4c(F)cccc34)n2)ccc1N(C)CCN(C)C` [Compound 540, N-(2-((2-(dimethylamino)ethyl)(methyl)amino)-5-((4-(7-fluoro-1H-indol-3-yl)-5-(trifluoromethyl)pyrimidin-2-yl)amino)phenyl)propionamide], the concentration for half-maximal inhibition (IC50) in the assay on H1975 cells (Homo sapiens, NCI-H1975, 72 h) was determined as 95.4 nM.
The same measure, in the same setting: then `CN(C)CCN(C)c1ccc(Nc2nccc(-c3c[nH]c4c(F)cccc34)n2)cc1N` [Compound 545, N^1-(2-(dimethylamino)ethyl)-N^1-methyl-N^4-(4-(7-fluoro-1H-indol-3-yl)pyrimidin-2-yl)benzene-1,2,4-triamine], with 876 nM.
On the same count and under the same terms, then `COc1cccc2c(-c3nc(Nc4ccc(N(C)CCN(C)C)c(N)c4)ncc3F)c[nH]c12` [Compound 528, N^1-(2-(dimethylamino)ethyl)-N^1-methyl-N^4-(5-fluoro-4-(7-methoxy-1H-indol-3-yl)pyrimidin-2-yl)benzene-1,2,4-triamine], with 298 nM.
The same measure, in the same setting: then `CC(=O)Nc1cc(Nc2ncc(F)c(-c3c[nH]c4c(F)cccc34)n2)ccc1N(C)CCN(C)C` [Compound 521, N-(2-((2-(dimethylamino)ethyl)(methyl)amino)-5-((5-fluoro-4-(7-fluoro-1H-indol-3-yl)pyrimidin-2-yl)amino)phenyl)acetamide], with 695 nM.
As to `COc1cnc(Nc2ccc(N(C)CCN(C)C)c(N)c2)nc1-c1c[nH]c2c(C)cccc12` [Compound 532, N^1-(2-(dimethylamino)ethyl)-N^1-methyl-N^4-(5-methoxy-4-(7-methyl-1H-indol-3-yl)pyrimidin-2-yl)benzene-1,2,4-triamine], the IC50 with H1975 cells (Homo sapiens, NCI-H1975, 72 h) came to 791 nM.
Still for that read-out and setting: as for `CCC(=O)Nc1cc(Nc2ncc(C(F)(F)F)c(-c3c[nH]c4c(C)cccc34)n2)ccc1N(C)CCN(C)C` [Compound 542, N-(2-((2-(dimethylamino)ethyl)(methyl)amino)-5-((4-(7-methyl-1H-indol-3-yl)-5-(trifluoromethyl)pyrimidin-2-yl)amino)phenyl)propionamide], the figure is 80.4 nM.

For orientation: IC50 means the concentration that gives 50% inhibition.

(Values after patent publication US20250136576A1, “Heterocyclic Compounds and Uses Thereof” (ACEA Therapeutics, Inc., priority 2021, published 2025).)
